Source: patent US20110306622A1, “METHODS OF TREATING HEMATOLOGICAL DISORDERS WITH QUINAZOLINONE COMPOUNDS IN SELECTED SUBJECTS” (Calitoga Pharmaceuticals, Inc., priority 2010, published 2011)
pEC50: −log10 of the molar value.

Key:
[1] = tested on: CCL17, CCL22, CXCL13 and TNF-alpha levels in iNHL patients; test: Plasma chemokine and TNF-alpha levels and tumor size in iNHL patients, pre-treatment vs Day 28; assay type: in vivo, human
Experimental: (§1) 103 patients were enrolled in the study, including 40 with MCL and 63 with iNHL. Among patients with iNHL, all 4 subtypes were represented. Patients were heavily treated with chemoimmunotherapy. Patients had received a median of 4 prior regimens and some had received as many as 14 prior regimens. Most patients had received several types of chemoimmunotherapy for NHL. Disease was commonly refractory to available therapies.
(§2) Patients were treated over a broad range of doses of Compound A using once-per-day (QD) and twice-per-day (BID) continuous and intermittent schedules. Patients remained on therapy for protracted periods; many patients with iNHL continued on treatment beyond 12 cycles (48 weeks).
(§3) Prior to treatment, the concentration of CCL17, CCL22, CXCL13, and TNF-alpha was evaluated. On the last day of the cycle, the plasma concentration of the chemokines and TNF-alpha was re-assessed. Table 3 (for MCL) and Table 4 (for iNHL) below summarize the chemokine and TNF-alpha concentration at the baseline and at Day 28 of the cycle.

[2] = tested on: CCL3, CCL4 and CXCL13 chemokine levels in CLL patients; test: Plasma chemokine levels in CLL patients before and after one 28-day cycle of treatment (multiplexed bead suspension arrays); assay type: in vivo, human
Experimental: Plasma was stored at −70 degrees centigrade. Before analysis, samples were thawed overnight at 4 degrees centigrade and centrifuged at 1,500×g to remove debris. Chemokines were analyzed with commercially available multiplexed bead suspension arrays (MBA, Millipore). MBAs were analyzed using a Luminex 200 instrument and data was organized and analyzed using 3.1 xPONENT software. The plasma concentration of 14 patients with CLL was assessed at pre-dose baseline concentrations. The average plasma concentration of CCL3 (186 pg/mL) and CCL4 (303 pg/mL) at the pre-dose baseline are approximately 5 times higher in these subject compared to normal subjects. The average plasma concentration of CXCL13 (316 pg/mL) at pre-dose baseline was approximately 10 times higher than normal subjects. […] In the first week of dosing across all dose levels evaluated, the concentration of CCL3, CCL4 and CXCL13 were decreased by 2 to 5-fold. On the last day of the cycle, the plasma concentration of the chemokines was reassessed, see FIG. 1.

[3] = tested on: CCL3, CCL17 and TNF-alpha in CLL patients; test: Clinical evaluation in CLL patients: change in plasma CCL3, CCL17 and TNF-alpha compared to decrease in lymph node size; assay type: in vivo, human; details: responders = lymph node decreases of 50% or greater, FIG. 10
Experimental: The concentration of CCL3, CCL17 and TNF-alpha were determined in the plasma samples by a bead-based ELISA technology. The resulting plasma concentrations of these factors were compared to decrease in lymph node size. Patients that had lymph node decreases of 50% or greater were designated as “responders” to the drug.

[4] = tested on: BCR-induced secretion of CCL3 and CCL4 by CLL cells; test: BCR-induced (anti-IgM) secretion of chemokines CCL3 and CCL4 by CLL cells, ELISA of supernatants; assay type: cell-based; details: medium with anti-IgM plus compound, 24 hours, anti-IgM alone raised levels roughly 5 to 6 fold
[5] = tested on: CCL17, CCL22, CXCL13 and TNF-alpha levels in MCL patients; test: Plasma chemokine and TNF-alpha levels and tumor size in MCL patients, pre-treatment vs Day 28; assay type: in vivo, human
Experimental: as §1, §2, §3

[6] = biological target: PI3Kalpha (Mus musculus, UniProt P42337); test: Isoform specific cell-based assay: PDGF induced pAKT in fibroblast cell line (Swiss-3T3); details: n = 12
Experimental: (§4) Swiss-3T3 fibroblasts and RAW-264 were seeded on a 96-well tissue culture plate and allowed to reach at least 90% confluency. […] Akt phosphorylation and total AKT was detected by ELISA. Purified B-cells were treated with either vehicle or serial dilutions of compound I for 30 minutes at room temperature before the addition of purified goat anti-human IgM. Results are expressed as relative [^3H] thymidine incorporation induced by IgM crosslinking.

[7] = biological target: T1, PI3Kγ (Mus musculus, UniProt Q9JHG7); test: Isoform specific cell-based assay: C5a induced pAKT in monocyte cell line (RAW-264); details: n = 11
T1 construct: endogenous in cells; host or cells: RAW-264 monocyte cell line
Experimental: as §4

PI3Kalpha, sequence (P42337 whole entry, canonical isoform): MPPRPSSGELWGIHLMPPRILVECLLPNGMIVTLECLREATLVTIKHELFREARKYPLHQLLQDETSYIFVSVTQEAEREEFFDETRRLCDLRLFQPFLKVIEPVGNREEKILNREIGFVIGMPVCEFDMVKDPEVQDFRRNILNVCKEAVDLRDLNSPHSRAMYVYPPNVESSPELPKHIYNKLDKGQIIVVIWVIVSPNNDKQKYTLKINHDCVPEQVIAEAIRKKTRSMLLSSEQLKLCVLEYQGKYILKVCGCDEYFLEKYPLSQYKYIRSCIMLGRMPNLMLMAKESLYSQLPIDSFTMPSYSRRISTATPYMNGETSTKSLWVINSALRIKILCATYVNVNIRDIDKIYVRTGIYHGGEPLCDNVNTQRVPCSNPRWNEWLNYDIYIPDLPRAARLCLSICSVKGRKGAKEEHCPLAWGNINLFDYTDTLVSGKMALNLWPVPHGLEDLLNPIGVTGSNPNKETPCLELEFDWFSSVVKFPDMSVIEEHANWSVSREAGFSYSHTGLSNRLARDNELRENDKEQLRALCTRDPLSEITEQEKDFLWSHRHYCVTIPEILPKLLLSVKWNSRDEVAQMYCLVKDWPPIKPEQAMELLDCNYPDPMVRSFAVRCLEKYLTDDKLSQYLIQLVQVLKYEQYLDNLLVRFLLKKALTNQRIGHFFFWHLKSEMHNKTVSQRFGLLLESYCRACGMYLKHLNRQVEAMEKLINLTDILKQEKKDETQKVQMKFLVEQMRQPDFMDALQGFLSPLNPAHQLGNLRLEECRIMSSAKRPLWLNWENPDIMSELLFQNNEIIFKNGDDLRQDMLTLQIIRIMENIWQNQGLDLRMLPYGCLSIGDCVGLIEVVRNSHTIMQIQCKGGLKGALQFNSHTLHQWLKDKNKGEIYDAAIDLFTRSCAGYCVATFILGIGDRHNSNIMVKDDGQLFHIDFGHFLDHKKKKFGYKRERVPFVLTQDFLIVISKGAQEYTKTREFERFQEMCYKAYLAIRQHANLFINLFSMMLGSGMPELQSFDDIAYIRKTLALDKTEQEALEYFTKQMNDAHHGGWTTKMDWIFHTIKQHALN
PI3Kalpha, sequence (P26450 whole entry partner, canonical isoform): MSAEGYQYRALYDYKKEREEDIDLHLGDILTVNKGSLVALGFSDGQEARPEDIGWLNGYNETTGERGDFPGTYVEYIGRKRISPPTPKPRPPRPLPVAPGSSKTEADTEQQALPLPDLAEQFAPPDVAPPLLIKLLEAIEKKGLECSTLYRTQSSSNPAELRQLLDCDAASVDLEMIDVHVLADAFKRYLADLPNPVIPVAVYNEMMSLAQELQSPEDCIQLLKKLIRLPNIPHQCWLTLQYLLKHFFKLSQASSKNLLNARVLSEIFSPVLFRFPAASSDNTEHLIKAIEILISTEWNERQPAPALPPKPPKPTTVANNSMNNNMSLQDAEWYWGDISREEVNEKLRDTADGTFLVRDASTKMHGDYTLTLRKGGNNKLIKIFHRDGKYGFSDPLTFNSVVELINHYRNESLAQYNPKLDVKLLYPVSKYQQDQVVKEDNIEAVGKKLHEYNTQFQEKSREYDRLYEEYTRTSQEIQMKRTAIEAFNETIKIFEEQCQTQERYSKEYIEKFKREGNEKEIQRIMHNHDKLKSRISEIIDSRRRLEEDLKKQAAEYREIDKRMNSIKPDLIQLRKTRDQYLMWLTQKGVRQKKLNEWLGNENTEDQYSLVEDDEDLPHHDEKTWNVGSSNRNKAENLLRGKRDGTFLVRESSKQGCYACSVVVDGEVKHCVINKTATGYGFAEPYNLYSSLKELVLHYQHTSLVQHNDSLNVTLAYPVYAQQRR
T1 sequence (Q9JHG7 whole entry, canonical isoform): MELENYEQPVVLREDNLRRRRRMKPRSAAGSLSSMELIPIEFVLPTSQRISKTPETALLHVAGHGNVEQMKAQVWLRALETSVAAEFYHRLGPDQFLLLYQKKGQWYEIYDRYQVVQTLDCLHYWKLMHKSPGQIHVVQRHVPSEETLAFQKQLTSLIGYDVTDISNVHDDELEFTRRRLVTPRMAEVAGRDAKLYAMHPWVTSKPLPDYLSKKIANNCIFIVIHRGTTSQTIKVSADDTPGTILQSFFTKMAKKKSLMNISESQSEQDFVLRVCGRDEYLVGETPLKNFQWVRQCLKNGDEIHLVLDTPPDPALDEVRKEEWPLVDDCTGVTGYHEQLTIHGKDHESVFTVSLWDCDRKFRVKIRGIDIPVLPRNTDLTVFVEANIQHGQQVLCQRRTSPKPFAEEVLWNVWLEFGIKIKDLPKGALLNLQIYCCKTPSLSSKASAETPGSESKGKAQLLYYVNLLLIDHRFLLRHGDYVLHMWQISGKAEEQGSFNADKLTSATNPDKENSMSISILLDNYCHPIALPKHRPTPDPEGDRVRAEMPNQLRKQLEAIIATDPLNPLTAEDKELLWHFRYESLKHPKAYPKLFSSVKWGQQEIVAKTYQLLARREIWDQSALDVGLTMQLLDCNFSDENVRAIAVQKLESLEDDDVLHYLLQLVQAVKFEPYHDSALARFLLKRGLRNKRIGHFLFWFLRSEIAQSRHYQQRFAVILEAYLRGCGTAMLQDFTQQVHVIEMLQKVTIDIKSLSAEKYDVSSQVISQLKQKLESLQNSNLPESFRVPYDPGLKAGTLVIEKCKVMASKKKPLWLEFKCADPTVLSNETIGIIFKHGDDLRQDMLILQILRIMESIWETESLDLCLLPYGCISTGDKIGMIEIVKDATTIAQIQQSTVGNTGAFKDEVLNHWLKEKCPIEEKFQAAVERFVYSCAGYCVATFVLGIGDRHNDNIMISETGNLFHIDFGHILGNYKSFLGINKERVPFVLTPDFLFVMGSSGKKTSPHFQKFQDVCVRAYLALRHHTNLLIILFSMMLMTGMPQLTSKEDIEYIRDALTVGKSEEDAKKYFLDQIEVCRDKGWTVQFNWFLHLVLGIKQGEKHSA
T1 sequence (Q5SW28 whole entry partner, canonical isoform): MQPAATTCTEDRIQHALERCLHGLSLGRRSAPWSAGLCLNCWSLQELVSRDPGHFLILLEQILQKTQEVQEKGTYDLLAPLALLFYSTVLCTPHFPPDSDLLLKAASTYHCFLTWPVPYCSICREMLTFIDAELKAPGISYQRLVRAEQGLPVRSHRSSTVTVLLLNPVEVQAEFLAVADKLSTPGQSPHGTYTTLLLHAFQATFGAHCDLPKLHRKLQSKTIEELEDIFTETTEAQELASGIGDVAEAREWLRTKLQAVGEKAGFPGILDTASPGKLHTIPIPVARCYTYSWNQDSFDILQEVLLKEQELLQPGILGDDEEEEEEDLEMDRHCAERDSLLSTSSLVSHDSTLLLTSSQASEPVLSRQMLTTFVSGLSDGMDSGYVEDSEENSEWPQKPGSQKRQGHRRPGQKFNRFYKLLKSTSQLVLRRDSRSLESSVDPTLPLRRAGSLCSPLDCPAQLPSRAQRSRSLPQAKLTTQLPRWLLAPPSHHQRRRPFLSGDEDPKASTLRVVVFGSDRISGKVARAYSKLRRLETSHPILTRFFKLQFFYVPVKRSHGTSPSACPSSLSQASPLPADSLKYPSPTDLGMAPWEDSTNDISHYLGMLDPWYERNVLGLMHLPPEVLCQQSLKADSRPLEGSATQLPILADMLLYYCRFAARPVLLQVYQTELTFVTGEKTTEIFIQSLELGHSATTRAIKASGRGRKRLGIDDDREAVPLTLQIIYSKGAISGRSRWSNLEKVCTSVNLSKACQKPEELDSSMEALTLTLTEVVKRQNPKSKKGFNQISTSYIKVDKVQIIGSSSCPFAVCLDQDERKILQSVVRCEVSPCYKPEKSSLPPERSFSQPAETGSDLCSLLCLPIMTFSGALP

pEC50 [6]: < 4.70 | pEC50 [7]: 5.41
SMILES: CC[C@H](Nc1ncnc2[nH]cnc12)c1nc2cccc(F)c2c(=O)n1-c1ccccc1 [Compound A, (S)-2-(1-(9H-purin-6-ylamino)propyl)-5-fluoro-3-phenylquinazolin-4(3H)-one]
TNF-alpha plasma concentration ([1]; Day 28 (pre-treatment 41)): 19 pg/mL | CCL17 plasma concentration ([1]; Day 28 (pre-treatment 234)): 88 pg/mL | CXCL13 plasma concentration ([1]; Day 28 (pre-treatment 470)): 161 pg/mL | CCL22 plasma concentration ([1]; Day 28 (pre-treatment 2602)): 1166 pg/mL | % reduction of CCL17 ([1]; Day 28 vs pre-treatment): 62% | % reduction of CCL22 ([1]; Day 28 vs pre-treatment): 55% | % reduction of CXCL13 ([1]; Day 28 vs pre-treatment): 66% | % reduction of TNF-alpha ([1]; Day 28 vs pre-treatment): 54% | clinical activity (tumor size) ([1]; FIG. 4b): reduction in tumor size | clinical activity (lymphadenopathy) ([2]; 50 to 350 mg BID, 28-day dosing period): decrease in lymphadenopathy | CCL3 plasma concentration ([2]; Day 28 of cycle 1, 50 to 350 mg BID, average (baseline 186)): 29 pg/mL | CCL4 plasma concentration ([2]; Day 28 of cycle 1, 50 to 350 mg BID, average (baseline 303)): 70 pg/mL | CXCL13 plasma concentration ([2]; Day 28 of cycle 1, 50 to 350 mg BID, average (baseline 316)): 40 pg/mL | % reduction of CCL3 ([2]; Day 28 vs baseline): 84% | % reduction of CCL4 ([2]; Day 28 vs baseline): 77% | % reduction of CXCL13 ([2]; Day 28 vs baseline): 87% | decrease of the concentration of CCL3, CCL4 and CXCL13 ([2]; first week of dosing, across all dose levels evaluated (50 to 350 mg BID)): 2 to 5 fold | change from predose to Day 28 of CCL3, CCL17 and TNF-alpha, responders vs non-responders [3]: significantly greater for individuals that responded to the drug than those that did not | CCL3 and CCL4 secretion by anti-IgM stimulated CLL cells [4]: effective suppression of chemokine secretion to levels nearing the control values | TNF-alpha plasma concentration ([5]; Day 28 (pre-treatment 65)): 37 pg/mL | CCL17 plasma concentration ([5]; Day 28 (pre-treatment 194)): 60 pg/mL | CXCL13 plasma concentration ([5]; Day 28 (pre-treatment 437)): 227 pg/mL | CCL22 plasma concentration ([5]; Day 28 (pre-treatment 2593)): 1286 pg/mL | % reduction of CCL17 ([5]; Day 28 vs pre-treatment): 69% | % reduction of CCL22 ([5]; Day 28 vs pre-treatment): 50% | % reduction of CXCL13 ([5]; Day 28 vs pre-treatment): 48% | % reduction of TNF-alpha ([5]; Day 28 vs pre-treatment): 43% | clinical activity (tumor size) ([5]; FIG. 4a): reduction in tumor size
